Measurements reported in patent publication US6767897B2, “Therapeutic uses of tri-, tetra-, penta-, and polypeptides” (Innapharma, Inc., priority 1994, dated 2004).
Residues, ends and D or L forms follow the SMILES beside them.

Key:
[1] = rat, in vivo, sc
[2] = test system: animal models for depression; conditions: in vivo; cited from earlier work

Compound | levels found in the hippocampus and the amygdala [1] | activity in animal models for depression [2]
4-F-Phe-cis- or trans-4-OH-Pro-Arg-Gly-Trp-NH2 [SEQ ID NO:43] | found at detectable levels and substantially unchaged in the hippocampus and the amygdala | –
CC(C)C[C@H](NC(=O)[C@@H]1CCCN1)C(=O)NCC(N)=O [MIF, prolyl-leucyl-glycinamide] (H-Pro-Leu-Gly-NH2) | – | active in a number of animal models for depression
